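Following 48 hours of exposure in 96-well plates, responses at five concentrations were used to interpolate endpoints linearly. TGI: concentration producing complete growth inhibition.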
Tests used:
Assay in all cases: NCI tumour cell line growth inhibition, 48 h
MDA-N = system: MDA-N
NCI/ADR-RES ovarian = system: NCI/ADR-RES ovarian
HOP-92 NSCLC = system: HOP-92 NSCLC
SR leukemia = system: SR leukemia
KM12 colon = system: KM12 colon
HOP-62 NSCLC = system: HOP-62 NSCLC
NCI-H226 lung = system: NCI-H226 lung
NCI-H23 lung = system: NCI-H23 lung
OVCAR-4 ovarian = system: OVCAR-4 ovarian
CAKI-1 renal = system: CAKI-1 renal
SK-MEL-28 melanoma = system: SK-MEL-28 melanoma
SK-OV-3 ovarian = system: SK-OV-3 ovarian
SK-MEL-5 melanoma = system: SK-MEL-5 melanoma
SW-620 colon = system: SW-620 colon
SF-539 CNS = system: SF-539 CNS
IGROV1 ovarian = system: IGROV1 ovarian
RPMI-8226 leukemia = system: RPMI-8226 leukemia
U251 CNS = system: U251 CNS
UO-31 renal = system: UO-31 renal
BT-549 breast = system: BT-549 breast
TK-10 renal = system: TK-10 renal
MDA-MB-435 = system: MDA-MB-435
SK-MEL-2 melanoma = system: SK-MEL-2 melanoma
RXF 393 renal = system: RXF 393 renal
MOLT-4 leukemia = system: MOLT-4 leukemia
OVCAR-3 ovarian = system: OVCAR-3 ovarian
MCF7 breast = system: MCF7 breast
K-562 leukemia = system: K-562 leukemia
SNB-19 CNS = system: SNB-19 CNS
HCT-116 colon = system: HCT-116 colon
HT29 colon = system: HT29 colon
MALME-3M melanoma = system: MALME-3M melanoma
786-0 renal = system: 786-0 renal
SF-268 CNS = system: SF-268 CNS
UACC-62 melanoma = system: UACC-62 melanoma
HCC-2998 colon = system: HCC-2998 colon
ACHN renal = system: ACHN renal
OVCAR-5 ovarian = system: OVCAR-5 ovarian
HS 578T breast = system: HS 578T breast
LOX IMVI melanoma = system: LOX IMVI melanoma
HL-60(TB) leukemia = system: HL-60(TB) leukemia
A549 NSCLC = system: A549 NSCLC
PC-3 prostate = system: PC-3 prostate
SF-295 CNS = system: SF-295 CNS
HCT-15 colon = system: HCT-15 colon
UACC-257 melanoma = system: UACC-257 melanoma
CCRF-CEM leukemia = system: CCRF-CEM leukemia
A498 renal = system: A498 renal
NCI-H522 lung = system: NCI-H522 lung
SN12C renal = system: SN12C renal
OVCAR-8 ovarian = system: OVCAR-8 ovarian
T-47D breast = system: T-47D breast
SNB-75 CNS = system: SNB-75 CNS
EKVX NSCLC = system: EKVX NSCLC
MDA-MB-231 breast = system: MDA-MB-231 breast
NCI-H460 lung = system: NCI-H460 lung
M14 melanoma = system: M14 melanoma
DU-145 prostate = system: DU-145 prostate
COLO 205 colon = system: COLO 205 colon

Measured: TGI

COC(=O)C(=O)C(C(=O)C(=O)Nc1ccc(C)c(C)c1)c1nc2ccc([N+](=O)[O-])cc2[nH]c1=O (centres undefined)
not listed: DU-145 prostate | COLO 205 colon
> 100 µM: all other assays above

C[n+]1c2ccccc2c(C(=O)Nc2ccc(S(=O)(=O)Nc3ncccn3)cc2)c2ccccc21
not listed: HOP-92 NSCLC | RXF 393 renal | HL-60(TB) leukemia | CCRF-CEM leukemia | A498 renal | NCI-H522 lung
> 100 µM: all other assays above

CSc1nc[nH]c1C(N)=S
not listed: HOP-92 NSCLC | SR leukemia | OVCAR-4 ovarian | K-562 leukemia | HCC-2998 colon | HCT-15 colon | CCRF-CEM leukemia | SN12C renal | NCI-H460 lung
> 100 µM: all other assays above

CC(=O)N[C@@H](Cc1ccc(O)cn1)C(=O)NC1CCCCC1
not listed: RXF 393 renal | MALME-3M melanoma | HL-60(TB) leukemia | SNB-75 CNS | NCI-H460 lung
> 100 µM: all other assays above

Reference: PubChem BioAssay (NCI)
